Measurements: US10106582B2, “Complex-formation-modulating agents and uses therefor” (Factor Therapeutics Limited, priority 2012, dated 2018)

Key:
Format in all cases: cell-based, human
[1] = system: MCF-7 cells; assay: Transwell migration assay, IGF-I+IGFBP-5+VN trimeric complex-stimulated MCF-7 cell migration
Description: Two motifs (motifs 1 and 8) within native VN, deemed potentially significant in supporting the binding of IGF-II, IGFBP-3 and IGFBP-5, were identified as outlined in the previous section. After preliminary in silico analyses motif 8 (J4-7) was deemed as potentially the most significant region within native VN supporting binding interactions of all the three IGF-II, IGFBP-3 and IGFBP-5 proteins and was chosen for the initial analyses. The VN-peptide covering the sequences of motif 8 was designed such that it covered all the 3AA frameshift sets that contributed to a positive spot within the motif 8 (see, FIG. 3 and Table 7). The sequence of this peptide is RVNLRTRRVDTVDPPYPRS [SEQ ID NO:100] and is designated P8. […] The sequence of that peptide is […] [SEQ ID NO:86] and is designated P7. […] The functional effects of these peptides on IGF-I:IGFBP:VN-stimulated breast cancer cell migration were investigated using Transwell® assays. Transwells® were pre-bound with VN, either alone or in combination with IGF-I and IGFBP-5 (TRI). Treatment with TRI supplemented with increasing concentrations of peptides P7 and/or P8 were assayed. TRI supplemented with Anlg or Neg peptide were included as positive and negative controls of migration inhibition, respectively. All unbound proteins were removed with washing and MCF-7 cell migration was assessed over 15 hours.
The Transwell® inserts were prepared by pre-binding the lower chamber and the under-surface of the 8-μm pore membranes with proteins as described below. For all 2D functional assays described throughout this study, including Transwell® the treatments for the pre-binding steps were VN, IGF-I+IGFBP-5+VN (TRI) complex, either alone or in combination with respective controls or VN-peptides. The concentrations of the proteins added into the culture wells were VN, 1 μg/mL; IGF-I, 30 ng/mL and IGFBP-5, 90 ng/mL, unless otherwise stated. The concentration of VN-peptides used are indicated where appropriate.
Optimal IGF-I:IGFBP-5:VN-mediated attachment and migration of MCF-7 cells in multiwell plates is obtained by pre-binding human native-IGF-I and/or IGFBP-5 and VN at concentrations of 30 ng/mL, 90 ng/mL and 1 μg/mL per well, respectively, to the lower chambers and under surfaces of Transwells®. […] For Anlg, concentrations varying from 30 ng/mL to 300 ng/mL were used.
Transwells® were prepared by pre-binding the test proteins, either alone or in combinations, to the lower chambers and under-surfaces of Transwells® following procedures previously described (Kricker et al., 2003). Briefly, 0.5 mL DMEM/F12 serum-free phenol-red free medium (SFM) containing 1 μg/mL VN was added to the lower chambers of 24-well, 8-μm pore Transwell® plates and incubated for 3 hours at 37° C. Unbound VN was removed and the wells were washed twice with 0.5 mL SFM+0.5% BSA following which 0.5 mL of SFM+0.5% BSA was placed in the lower chamber to block surfaces with no protein bound. To pre-bind growth factors, 0.5 mL SFM+0.05% BSA containing native IGF-I (30 ng/mL), IGFBP-5 (90 ng/mL) or Anlg, either alone or in combination, were added to the lower chambers of the Transwells® and incubated overnight at 4° C. The solution containing unbound growth factors was removed and the wells were washed twice with SFM+0.05% BSA and replaced with 0.5 mL of SFM+0.05% BSA. Throughout the pre-binding procedure care was taken to keep the upper surface of the Transwell® inserts dry.
Migration assays were essentially performed following protocols described previously in Leavesley et al 1993, J Cell Biol. 121:163-70. The cells in culture flasks were split 1:1, 24 hours prior to performing the migration assay. The cells were serum-starved for 4 hours and a cell suspension containing 6×10^4 cells in 200 μL SFM+0.05% BSA was seeded onto the upper-surface of the pre-coated Transwell® inserts and incubated for 15 hours at 37° C., 5% CO2 (refer to above for proteins pre-bound and concentrations used). […]

[2] = system: MCF-7 cells; assay: Transwell migration assay, IGF-I+IGFBP-3+VN (TRI)-stimulated MCF-7 cell migration
Method: FIG. 6 is a graphical representation showing MCF-7 cell migration in response to VN peptides. MCF-7 cells were seeded onto the upper-surface of a Transwell inserts coated on the under-surface with treatments containing IGF-I+IGFBP-3+VN (TRI; 10 nM) with or without increasing concentrations of either peptide P7, P8 or Pneg. Migration was assessed after 15 hours. Data is represented as percentage of change in migration compared to the TRI only control. Error bars indicate standard error mean.
This assay has been repeated three times with treatments tested in triplicate wells in each replicate experiment.
The breast cancer epithelial cell line MCF-7 was used for this assay. Migration was assessed by measuring relative number of cells migrating through 8-μm pore Transwell membranes in response to substrate-bond proteins complexes. IGFBP-3 was allowed to bind either peptide P7, P8 or a combination of P7 and P8 for 2 hours. IGF-I was later added to this protein mix which was then added to Transwells pre-coated with VN. Post-overnight incubation, unbound proteins were removed, Transwells washed twice and cells seeded onto the upper chamber. Cells migrated to the under-surface over 15 hours were indirectly quantified using crystal violet staining.

[3] = system: MCF-7 cells; assay: 3D Matrigel growth assay of MCF-7 tumor spheroids
Description: FIG. 7 is a photographic and graphical representation showing MCF-7 3D cell growth in response to peptide antagonists. MCF-7 cells suspended in media containing 1% serum and 2.5% Matrigel (Matrigel media) were layered onto a thin layer of 100% Matrigel. Spheroids were allowed to form in Matrigel media containing VN, TRI or TRI supplemented with peptides P7 and P8. Cells were allowed to grow for 14 days with media+proteins changed every 3 days. (A) Phase contrast and fluorescence microscopy was used to obtain images of the spheroids treated with 90 nM P7, P8 or P7+8. The fluorescent images were subjected to analysis using Image J to calculate spheroid sizes. The images post-ImageJ analyses are depicted in the bottom panel of A. All the images depicted are representative images obtained from triplicate experiments with treatments tested in duplicates in each replicate experiment. Scale bar denotes 100 μm. (B) Scatter plot depicts mean spheroid size (μm^2) at Day 14 for each treatment, calculated using Image-J (90 nM peptide treatments are depicted here). Each data point in the graph is the average size of all spheroids present in a single field of view at 40× magnification. ** denotes p<0.01 and * denotes p<0.05. (C) To measure cell viability/proliferation the 3D culture was treated on Day 14 with 5% Alamar Blue dye for 4 hours and fluorescence intensities were recorded. Error bars indicate SEM. ** denotes p<0.01 Vs TRI and * denotes p<0.05 Vs TRI. The experiment was repeated twice with treatments tested in duplicate wells in each replicate experiment. TRI=IGF-I:IGFBP-5:VN trimeric complex (equimolar at 10 nM concentrations).
To closely mimic in vivo conditions, cells were grown in a 3D matrix (Matrigel) closely resembling in vivo extracellular matrix physiology. MCF-7 cells suspended in growth media containing 1% serum and 2.5% Matrigel (Matrigel media) were layered onto a thin layer of 100% Matrigel. Tumor spheroids were allowed to form for 3 days after which spent media was replenished with Matrigel media containing VN only, trimeric complex, or trimeric complex supplemented with increasing concentrations of peptides (P7, P8 or P7+P8). Cells were allowed to grow for additional 11 days with media+proteins changed every 3 days. Spheroid morphology was assessed using phase-contrast microscopy and cell viability was measured using AlamarBlue, a fluorescent metabolic dye.

RVNLRTRRVDTVDPPYPRS (listed as Homo sapiens) [Peptide P8, human VN motif 8 mimic]
MCF-7 cell migration ([1]; TRI supplemented with peptide at 3× molar concentration of IGFBP-5 (43 ng/mL P7, 38 ng/mL P8), 15 hours): 94.4±1 % of VN | MCF-7 cell migration ([1]; TRI supplemented with peptide at 9× molar concentration of IGFBP-5, 15 hours): 121.7±8 % of VN | Inhibition of TRI-stimulated MCF-7 cell migration ([2]; 30 nM peptide dose, TRI 10 nM, 15 hours (most significant inhibition)): returned to the ‘VN only’ treatment levels | Inhibition of TRI-stimulated MCF-7 cell migration ([2]; increasing peptide concentrations added to TRI (IGF-I+IGFBP-3+VN; 10 nM), 15 hours): dose dependent inhibition | TRI-stimulated cell viability (AlamarBlue) ([3]; 90 nM peptide, Day 14, 3D Matrigel culture): significantly inhibit | Spheroid size (ImageJ) versus control TRI treatment ([3]; 90 nM peptide, Day 14, phalloidin staining): highest inhibitory effects | Size of TRI-treated tumor spheroids (phase-contrast microscopy) ([3]; increasing concentrations of peptides, Matrigel 3D culture, 14 days): decrease with increasing concentrations
